Target: T1, AcrIF11Pae2 (Escherichia coli, UniProt A0AAB0B261)
T1 construct: pET28b in E. coli BL21(DE3); 13C/15N-labelled
Assay: NMR chemical shift perturbation on NAD titration
Type: binding
Conditions: NMR structure 8DWQ is without NAD; structure sample 50 mM KPi pH 7.4, 298 K; titration conditions not stated

T1 sequence (A0AAB0B261 entry or part of it): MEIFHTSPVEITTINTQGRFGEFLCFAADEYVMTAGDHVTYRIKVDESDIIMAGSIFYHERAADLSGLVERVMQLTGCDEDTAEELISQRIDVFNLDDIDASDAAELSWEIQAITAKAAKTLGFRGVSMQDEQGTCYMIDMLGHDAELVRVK

## NC(=O)c1ccc[n+]([C@@H]2O[C@H](COP(=O)(O)OP(=O)(O)OC[C@H]3O[C@@H](n4cnc5c(N)ncnc54)[C@H](O)[C@@H]3O)[C@@H](O)[C@H]2O)c1 [NAD]
  NMR chemical shift perturbation on NAD titration: upon titration of cofactor NAD, the largest chemical shift perturbations occurred in the beta sheet region

— article PMC12421852, “AcrIF11 is a potent CRISPR-specific ADP-ribosyltransferase encoded by phage and plasmid” (mBio, 2025)
